In patent US11141451B2, “Pharmaceutical composition and health functional food comprising oat extract avenanthramide C or derivative thereof as effective ingredient for prevention or treatment of neurodegenerative disease” (INDUSTRY FOUNDATION OF CHONNAM NATIONAL UNIVERSITY, priority 2016, dated 2021):

What was measured:
[1] = tested on: long-term potentiation (LTP) in hippocampal slice of Tg2576 induced AD mouse; test: LTP induction in hippocampal slice of Tg2576 induced AD mouse; format: cell-based; conditions: 7-month-old Tg2576 mouse hippocampal slice, 50 μM compound
Method: (§1) The mice of Example 1 were anesthetized and decapitated to excise brains. The extracted brains were kept in a cooled artificial cerebrospinal fluid (aCSF) (124 mM NaCl, 3 mM KCl, 26 mM NaHCO3, 2 mM CaCl2, 1 mM MgSO4, 10 mM Glucose, 1.25 mM NaH2PO4, and 2 mM CaCl2) saturated with 95% oxygen. Hippocampal slices were sampled from the brains, and the hippocampal slice samples were prepared with a thickness of 400 μm. Then, the hippocampal slice samples were recovered in the aCSF (124 mM NaCl, 3 mM KCl, 26 mM NaHCO3, 2 mM CaCl2, 1 mM MgSO4, 10 mM Glucose, 1.25 mM NaH2PO4, and 2 mM CaCl2) saturated with 95% oxygen at a temperature of 22 to 25° C. for 1 hour, and then used in the experiment.
(§2) For LTP induction, the hippocampal slice samples were located in a recording chamber, respectively, and then were observed by analyzing a field excitatory postsynaptic potential (fEPSP) by stimulation of Schaffer-Collateral fiber, while applying stimulations to the samples with 100 Hz every 200 ms, and the experiment was performed for 90 minutes. During the experiment, the aCSF was supplied by flowing with a rate of 2 to 3 ml/min at 30° C., and the obtained experimental results were compared using the ANOVA test known in the art. The obtained results are illustrated in FIGS. 1 to 7.
(§3) In order to examine effects of avenanthramide C according to the present invention on the LTD in a hippocampal slice of a 7-month-old Tg2576 induced AD mouse, an LTP comparison experiment was performed using a hippocampal slice of a gene manipulated mouse in the same method as Experimental Example 1, and the results thereof are illustrated in FIGS. 12A and 12B.
as §3, with “B methyl ester” for “C”, “performed in the same method as Experimental Example 1” for “performed”, “mouse,” for “mouse in the same method as Experimental Example 1,”, “16A” for “12A”, “16B. […]” for “12B.”

[2] = tested on: long-term potentiation (LTP) in hippocampal slice of C57BL/6 mouse; test: LTP induction (fEPSP, Schaffer-Collateral stimulation) in hippocampal slices treated with amyloid-β; format: cell-based
Method: as §1, §2
In order to examine effects of avenanthramide C methyl ester according to the present invention on the LTD in a hippocampal slice of a mouse, an LTP comparison experiment was performed in the same method as Experimental Example 1, and the results thereof are illustrated in FIGS. 14A to 14C.
An LTP comparison experiment was performed by treating the samples with amyloid-β and β-glucan in amounts as illustrated in Table 2 below two hours before the experiment by using the same method as in Experimental Example 1, except that β-glucan was used instead of avenanthramide C according to the present invention. The obtained results are illustrated in FIGS. 18 to 21.

[3] = tested on: GSK3β; test: GSK3β activity by western blotting (GSK3αβ and phosphorylated GSK3β S9) in hippocampal slices treated with amyloid-β; format: cell-based, mouse
Method: as §1
Thereafter, RIPA [50 mM Tris-HCl (PH 7.5), 150 mM NaCl, 1% Nonidet P-40, 0.5% sodium deoxycholate, 0.1% SDS, 1 mM phenylmethylsulfonyl fluoride (PMSF), 1 mM DTT, and 2 μg of leupeptin and aprotinin, respectively, were dissolved therein. The crushed cells were centrifuged with 12,000 g at 4° C. for 20 minutes, and the resulting soluble fractions were denatured in a Laemmli buffer and subjected to sodium dodecyl sulfate-polyacrylamide gel electrophoresis (SDS-PAGE). After gel electrophoresis, the separated proteins were transferred to a polyvinylidene difluoride (PVDF) membrane using electroblotting. The membrane was blocked with AMRESCO, RAPIDBLOCK solution (pH 7) and subjected to blotting by using enhanced chemiluminescence (ECL). For blotting, an antibody for GSK3αβ and an antibody for phosphorylated GSK3β (S9) were used. The obtained results are illustrated in FIGS. 8 and 9. GSK3β is an enzyme whose activity is inhibited by the phosphorylation of serine residue 9, and is known as a modulator of a wide range of functions such as energy metabolism, cell proliferation, apoptosis and the like.
In order to examine effects of avenanthramide C methyl ester according to the present invention on activity of GSK3β in a hippocampal slice of a mouse, the same western blotting as Experimental Example 2 was performed, and the results thereof are illustrated in FIG. 15.

[4] = tested on: long-term potentiation (LTP) in hippocampal slice of 5×FAD induced AD mouse; test: LTP induction in hippocampal slice of 5×FAD induced AD mouse; format: cell-based
Method: as §1
as §2, with “7. […]” for “7.”

[5] = tested on: GSK3β; test: GSK3β activity by western blotting in hippocampal slice of 5×FAD induced AD mouse; format: cell-based; conditions: 4-month-old 5×FAD mouse hippocampal slice, 50 μM compound, versus untreated
Method: as §1
(§4) Thereafter, RIPA [50 mM Tris-HCl (PH 7.5), 150 mM NaCl, 1% Nonidet P-40, 0.5% sodium deoxycholate, 0.1% SDS, 1 mM phenylmethylsulfonyl fluoride (PMSF), 1 mM DTT, and 2 μg of leupeptin and aprotinin, respectively, were dissolved therein. The crushed cells were centrifuged with 12,000 g at 4° C. for 20 minutes, and the resulting soluble fractions were denatured in a Laemmli buffer and subjected to sodium dodecyl sulfate-polyacrylamide gel electrophoresis (SDS-PAGE). After gel electrophoresis, the separated proteins were transferred to a polyvinylidene difluoride (PVDF) membrane using electroblotting. […]

[6] = tested on: GSK3β; test: GSK3β activity by western blotting in hippocampal slice of Tg2576 induced AD mouse; format: cell-based; conditions: 7-month-old Tg2576 mouse hippocampal slice, 50 μM compound, versus untreated
Method: as §1, §4

[7] = hippocampal slice treated with 500 nM amyloid-β and 50 μM compound together
[8] = hippocampal slice treated with 500 nM amyloid-β and 500 μM compound together

## O=C(/C=C/c1ccc(O)cc1)Nc1ccc(O)cc1C(=O)O [avenanthramide A]
[1]
  LTP induction: induced

## COc1cc(/C=C/C(=O)Nc2ccc(O)cc2C(=O)O)ccc1O [avenanthramide B]
[1]
  LTP induction: slightly induced

## COC(=O)c1cc(O)ccc1NC(=O)/C=C/c1ccc(O)c(O)c1 [avenanthramide C methyl ester]
[2]; [7]
  LTP induction: induced
[3]; [7]
  activity of GSK3β: inhibited

## O=C(/C=C/c1ccc(O)c(O)c1)Nc1ccc(O)cc1C(=O)O [avenanthramide C]
[2]; hippocampal slice treated with 500 nM amyloid-β and 10 μM compound together
  LTP induction: not induced
[2]; [7]
  LTP induction: induced
[2]; [8]
  LTP induction: induced
[2]; hippocampal slice treated with only 50 μM compound, no amyloid-β
  LTP induction: induced
[2]; hippocampal slice treated with only 500 μM compound, no amyloid-β
  LTP induction: induced
[2]; only 500 μM compound, no amyloid-β
  toxicity in hippocampal slice (LTP experiment): not exhibiting toxicity
[3]; 500 nM amyloid-β and 500 μM compound together
  toxicity in hippocampal slice (GSK3β experiment): without toxicity
[3]; [7]
  activity of GSK3β: inhibiting the activity of GSK3β
[3]; [8]
  activity of GSK3β: inhibited
[4]; 4-month-old 5×FAD mouse hippocampal slice, 50 μM compound
  LTP induction: induced
[5]
  activity of GSK3β: more inhibited
[1]
  LTP induction: induced
[6]
  activity of GSK3β: more inhibited

## β-glucan [reference compound]
[2]; hippocampal slice treated with 500 nM amyloid-β and 80 μg/ml β-glucan together
  LTP induction: not induced
[2]; hippocampal slice treated with only 80 μg/ml β-glucan, no amyloid-β
  LTP induction: induced
[4]; induced AD mouse hippocampal slice, 80 μg/ml β-glucan
  LTP induction: not induced
